The record followed here is US8497240B2 (priority 2006, dated 2013).

Like-named read-outs stand apart in the source and are kept apart here. Ends that are not written are not given here.

In one test the target is T1, human GIP receptor (Homo sapiens, UniProt P48546).
T1 construct: expressed in transfected cells; host or cells: HEK293 (HEK-GIPR), membranes
T1 sequence (P48546 22-466): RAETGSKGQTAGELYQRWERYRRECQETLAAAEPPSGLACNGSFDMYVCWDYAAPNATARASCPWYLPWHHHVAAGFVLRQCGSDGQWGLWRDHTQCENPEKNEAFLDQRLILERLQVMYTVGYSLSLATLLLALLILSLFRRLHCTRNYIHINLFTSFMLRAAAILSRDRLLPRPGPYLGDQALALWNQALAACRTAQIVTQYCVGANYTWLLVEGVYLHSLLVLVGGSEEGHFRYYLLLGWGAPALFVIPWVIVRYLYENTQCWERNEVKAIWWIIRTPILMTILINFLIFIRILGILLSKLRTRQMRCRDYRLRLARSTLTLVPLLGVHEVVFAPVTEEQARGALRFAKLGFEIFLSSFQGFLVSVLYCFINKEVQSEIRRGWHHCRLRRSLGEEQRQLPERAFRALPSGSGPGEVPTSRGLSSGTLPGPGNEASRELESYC
The test can be described thus: biochemical. The format is binding.

The format of test [1] is in vivo, NIH/Swiss mice. To be noted: 30 nmol/kg.
Description: (§1) In FIG. 3A, bars represent mean±sd, n=6-10. […] Gavage (1.5 g/kg) was given at t=0, Sample was taken at t=30 min. […] In FIG. 3B, points represent mean±sem, n=8-15.
Peptide was injected IP at t=−5 minutes into 4-hour fasted NIH/Swiss female mice. […] In FIG. 17 points represent mean+/−sem. […] Samples were taken at t=60, t=120 and t=180.
Test [2] is classed as in vivo, NIH/Swiss mice. Conditions: 80 nmol/kg, AUC240.
Description: as §1
Points represent mean±sem.
[3] abbreviates: read-out: GIP RBA (% Inh 10 nM).
Where [4] appears, read: read-out: (% Inh 10 nm, GIP-LF Assay).

Consider `CC[C@H](C)[C@H](NC(=O)CNC(=O)[C@H](CCCCN)NC(=O)[C@H](Cc1c[nH]c2ccccc12)NC(=O)[C@H](CC(C)C)NC(=O)[C@@H](NC(=O)[C@H](Cc1ccccc1)NC(=O)CNC(=O)[C@H](CCCCN)NC(=O)[C@H](CCC(N)=O)NC(=O)[C@H](C)NC(=O)[C@H](CC(C)C)NC(=O)[C@H](CC(C)C)NC(=O)[C@H](Cc1c[nH]c2ccccc12)NC(=O)[C@H](CC(N)=O)NC(=O)[C@@H](NC(=O)[C@H](Cc1ccccc1)NC(=O)[C@H](CC(=O)O)NC(=O)[C@H](CCC(N)=O)NC(=O)[C@H](CCC(N)=O)NC(=O)[C@H](Cc1c[nH]cn1)NC(=O)[C@@H](NC(=O)[C@H](CCCCN)NC(=O)[C@H](CC(=O)O)NC(=O)[C@H](CCSC)NC(=O)[C@H](C)NC(=O)[C@@H](NC(=O)[C@H](CO)NC(=O)[C@H](Cc1ccc(O)cc1)NC(=O)[C@H](CC(=O)O)NC(=O)[C@H](CO)NC(=O)[C@@H](NC(=O)[C@H](Cc1ccccc1)NC(=O)[C@@H](NC(=O)CNC(=O)[C@H](CCC(=O)O)NC(=O)[C@@H](C)NC(=O)[C@@H](N)Cc1ccc(O)cc1)[C@@H](C)O)[C@@H](C)CC)[C@@H](C)CC)[C@@H](C)CC)C(C)C)C(C)C)C(=O)N[C@@H](CCC(N)=O)C(N)=O` [Compound 0601GIP4619], for which the inhibition at 0.01 µM on human GIP receptor (setting [3]) was 84.6%.

As for `CC[C@H](C)[C@H](NC(=O)[C@H](CO)NC(=O)[C@H](Cc1ccc(O)cc1)NC(=O)[C@H](CC(=O)O)NC(=O)[C@H](CO)NC(=O)[C@@H](NC(=O)[C@H](Cc1ccccc1)NC(=O)[C@@H](NC(=O)CNC(=O)[C@H](CCC(=O)O)NC(=O)[C@@H](C)NC(=O)[C@@H](N)Cc1ccc(O)cc1)[C@@H](C)O)[C@@H](C)CC)C(=O)N[C@@H](C)C(=O)N[C@@H](CCSC)C(=O)N[C@@H](CC(=O)O)C(=O)N[C@@H](CCCCN)C(=O)N[C@H](C(=O)N[C@@H](Cc1c[nH]cn1)C(=O)N[C@@H](CCC(N)=O)C(=O)N[C@@H](CCC(N)=O)C(=O)N[C@@H](CC(=O)O)C(=O)N[C@@H](Cc1ccccc1)C(=O)N[C@H](C(=O)N[C@@H](CC(N)=O)C(=O)N[C@@H](Cc1c[nH]c2ccccc12)C(=O)N[C@@H](CC(C)C)C(=O)N[C@@H](CC(C)C)C(=O)N[C@@H](C)C(=O)N[C@@H](CCC(N)=O)C(=O)N[C@@H](CCCCN)C(=O)N1CCC[C@H]1C(=O)N[C@@H](CCCCN)C(=O)NCC(=O)N[C@@H](CCCCN)C(=O)NCC(=O)N[C@@H](CCCCN)C(=O)N[C@@H](CO)C(N)=O)C(C)C)[C@@H](C)CC` [0601GIP4700], the inhibition at 0.01 µM at human GIP receptor (setting [3]) came out at 86.6%. For the same compound, in test [1], the “OGTT/GL (%)” value is −21, 30%. The “Basal Glucose Lowering at Peptide Conc. of 80 nmol/kg” value in test [2] is recorded as −6%, AUC240.

For “HGEGTFISDYSIALDKIRQQEFVNWLLAQKPKKIRYS-NH2 [Compound 0601GIP4842]”, on human GIP receptor (setting [4]), the inhibition at 0.01 µM was 40.8%.

For `CC[C@H](C)[C@H](NC(=O)[C@H](CO)NC(=O)[C@H](Cc1ccc(O)cc1)NC(=O)[C@H](CC(=O)O)NC(=O)[C@H](CO)NC(=O)[C@@H](NC(=O)[C@H](Cc1ccccc1)NC(=O)[C@@H](NC(=O)CNC(=O)[C@H](CCC(=O)O)NC(=O)CNC(=O)[C@@H](N)Cc1c[nH]cn1)[C@@H](C)O)[C@@H](C)CC)C(=O)N[C@@H](C)C(=O)N[C@@H](CCSC)C(=O)N[C@@H](CC(=O)O)C(=O)N[C@@H](CCCCN)C(=O)N[C@H](C(=O)N[C@@H](Cc1c[nH]cn1)C(=O)N[C@@H](CCC(N)=O)C(=O)N[C@@H](CCC(N)=O)C(=O)N[C@@H](CC(=O)O)C(=O)N[C@@H](Cc1ccccc1)C(=O)N[C@H](C(=O)N[C@@H](CC(N)=O)C(=O)N[C@@H](Cc1c[nH]c2ccccc12)C(=O)N[C@@H](CC(C)C)C(=O)N[C@@H](CC(C)C)C(=O)N[C@@H](C)C(=O)N[C@@H](CCC(N)=O)C(=O)N[C@@H](CCCCN)C(=O)N1CCC[C@H]1C(=O)N[C@@H](CCCCN)C(=O)N[C@@H](CCCCN)C(=O)N[C@H](C(=O)N[C@@H](CCCNC(=N)N)C(=O)N[C@@H](Cc1ccc(O)cc1)C(=O)N[C@@H](CO)C(N)=O)[C@@H](C)CC)C(C)C)[C@@H](C)CC` [Compound 0601GIP4839], the inhibition at 0.01 µM on human GIP receptor (setting [4]) worked out at 23.9%.

On to `CC[C@H](C)[C@H](NC(=O)[C@H](CCCCN)NC(=O)[C@H](CC(=O)O)NC(=O)[C@H](CC(C)C)NC(=O)[C@H](C)NC(=O)[C@@H](NC(=O)[C@H](CO)NC(=O)[C@H](Cc1ccc(O)cc1)NC(=O)[C@H](CC(=O)O)NC(=O)[C@H](CO)NC(=O)[C@@H](NC(=O)[C@H](Cc1ccccc1)NC(=O)[C@@H](NC(=O)CNC(=O)[C@H](CCC(=O)O)NC(=O)[C@H](C)NC(=O)[C@H](Cc1ccc(O)cc1)NC(=O)[C@@H](N)CC(C)C)[C@@H](C)O)[C@@H](C)CC)[C@@H](C)CC)C(=O)N[C@@H](C)C(=O)N[C@@H](CCC(N)=O)C(=O)N[C@@H](CCC(N)=O)C(=O)N[C@@H](CCC(=O)O)C(=O)N[C@@H](Cc1ccccc1)C(=O)N[C@H](C(=O)N[C@@H](CC(N)=O)C(=O)N[C@@H](Cc1c[nH]c2ccccc12)C(=O)N[C@@H](CC(C)C)C(=O)N[C@@H](CC(C)C)C(=O)N[C@@H](C)C(=O)N[C@@H](CCC(N)=O)C(=O)N[C@@H](CCCCN)C(=O)N1CCC[C@H]1C(=O)N[C@@H](CCCCN)C(=O)N[C@@H](CCCCN)C(=O)N[C@H](C(=O)N[C@@H](CCCNC(=N)N)C(=O)N[C@@H](Cc1ccc(O)cc1)C(=O)N[C@@H](CO)C(N)=O)[C@@H](C)CC)C(C)C` [0601GIP4803], for which the inhibition at 0.01 µM at human GIP receptor (setting [4]) and on human GIP receptor (setting [3]) was 89.9% throughout. Also, the “OGTT/GL (%)” value in test [1] was −16, %.

Regarding `CC[C@H](C)[C@H](NC(=O)[C@H](CO)NC(=O)[C@H](Cc1ccc(O)cc1)NC(=O)[C@H](CC(=O)O)NC(=O)[C@H](CO)NC(=O)[C@@H](NC(=O)[C@H](Cc1ccccc1)NC(=O)[C@@H](NC(=O)CNC(=O)[C@H](CCC(=O)O)NC(=O)[C@@H](C)NC(=O)[C@@H](N)Cc1ccc(O)cc1)[C@@H](C)O)[C@@H](C)CC)C(=O)N[C@@H](C)C(=O)N[C@@H](CCSC)C(=O)N[C@@H](CC(=O)O)C(=O)N[C@@H](CCCCN)C(=O)N[C@H](C(=O)N[C@@H](Cc1c[nH]cn1)C(=O)N[C@@H](CCC(N)=O)C(=O)N[C@@H](CCC(N)=O)C(=O)N[C@@H](CC(=O)O)C(=O)N[C@@H](Cc1ccccc1)C(=O)N[C@H](C(=O)N[C@@H](CC(N)=O)C(=O)N[C@@H](Cc1c[nH]c2ccccc12)C(=O)N[C@@H](CC(C)C)C(=O)N[C@@H](CC(C)C)C(=O)N[C@@H](C)C(=O)N[C@@H](CCC(N)=O)C(=O)N[C@@H](CCCCN)C(=O)NCCC(=O)NCCC(=O)N1CCC[C@H]1C(=O)N[C@@H](CCCCN)C(=O)N[C@@H](CCCCN)C(=O)N[C@H](C(=O)N[C@@H](CCCNC(=N)N)C(=O)N[C@@H](Cc1ccc(O)cc1)C(=O)N[C@@H](CO)C(N)=O)[C@@H](C)CC)C(C)C)[C@@H](C)CC` [0601GIP4648], the inhibition at 0.01 µM at human GIP receptor (setting [3]) stood at 85.1%. In addition, the “OGTT/GL (%)” value in test [1] is given as −20, 30%. Also, the “Basal Glucose Lowering at Peptide Conc. of 80 nmol/kg” value in test [2] was −8%, AUC240.

`CC[C@H](C)[C@H](NC(=O)[C@H](CCCCN)NC(=O)[C@H](CC(=O)O)NC(=O)[C@H](CC(C)C)NC(=O)[C@H](C)NC(=O)[C@@H](NC(=O)[C@H](CO)NC(=O)[C@H](Cc1ccc(O)cc1)NC(=O)[C@H](CC(=O)O)NC(=O)[C@H](CO)NC(=O)[C@@H](NC(=O)[C@H](Cc1ccccc1)NC(=O)[C@@H](NC(=O)CNC(=O)[C@H](CCC(=O)O)NC(=O)CNC(=O)[C@@H](N)Cc1c[nH]cn1)[C@@H](C)O)[C@@H](C)CC)[C@@H](C)CC)C(=O)N[C@@H](C)C(=O)N[C@@H](CCC(N)=O)C(=O)N[C@@H](CCC(N)=O)C(=O)N[C@@H](CCC(=O)O)C(=O)N[C@@H](Cc1ccccc1)C(=O)N[C@H](C(=O)N[C@@H](CC(N)=O)C(=O)N[C@@H](Cc1c[nH]c2ccccc12)C(=O)N[C@@H](CC(C)C)C(=O)N[C@@H](CC(C)C)C(=O)N[C@@H](C)C(=O)N[C@@H](CCC(N)=O)C(=O)N[C@@H](CCCCN)C(=O)N1CCC[C@H]1C(=O)N[C@@H](CCCCN)C(=O)N[C@@H](CCCCN)C(=O)N[C@H](C(=O)N[C@@H](CCCNC(=N)N)C(=O)N[C@@H](Cc1ccc(O)cc1)C(=O)N[C@@H](CO)C(N)=O)[C@@H](C)CC)C(C)C` [Compound 0601GIP4841]: the inhibition at 0.01 µM at human GIP receptor (setting [4]) came out at 56.6%.

“HGEGTLISDYSIAMDKIHQQDFVNWLLAQKPKKIRYS-NH2 [Compound 0601GIP4843]”: on human GIP receptor (setting [4]), the inhibition at 0.01 µM was 3%.

On to `CC[C@H](C)[C@H](NC(=O)[C@H](CO)NC(=O)[C@H](Cc1ccc(O)cc1)NC(=O)[C@H](CC(=O)O)NC(=O)[C@H](CO)NC(=O)[C@@H](NC(=O)[C@H](Cc1ccccc1)NC(=O)[C@@H](NC(=O)CNC(=O)[C@H](CCC(=O)O)NC(=O)[C@H](CO)NC(=O)[C@@H](N)Cc1ccc(O)cc1)[C@@H](C)O)[C@@H](C)CC)C(=O)N[C@@H](C)C(=O)N[C@@H](CCSC)C(=O)N[C@@H](CC(=O)O)C(=O)N[C@@H](CCCCN)C(=O)N[C@H](C(=O)N[C@@H](Cc1c[nH]cn1)C(=O)N[C@@H](CCC(N)=O)C(=O)N[C@@H](CCC(N)=O)C(=O)N[C@@H](CC(=O)O)C(=O)N[C@@H](Cc1ccccc1)C(=O)N[C@H](C(=O)N[C@@H](CC(N)=O)C(=O)N[C@@H](Cc1c[nH]c2ccccc12)C(=O)N[C@@H](CC(C)C)C(=O)N[C@@H](CC(C)C)C(=O)N[C@@H](C)C(=O)N[C@@H](CCC(N)=O)C(=O)N[C@@H](CCCCN)C(=O)N1CCC[C@H]1C(=O)N[C@@H](CCCCN)C(=O)N[C@@H](CCCCN)C(=O)N[C@H](C(=O)N[C@@H](CCCNC(=N)N)C(=O)N[C@@H](Cc1ccc(O)cc1)C(=O)N[C@@H](CO)C(N)=O)[C@@H](C)CC)C(C)C)[C@@H](C)CC` [0601GIP4538], for which the inhibition at 0.01 µM on human GIP receptor (setting [3]) is 94.2%. Besides, the “OGTT/GL (%)” value in test [1] is reported as −9, 30%.
